According to ChEMBL document CHEMBL3877319, “Synthesis of Ofornine mimics from natural product l-vasicine as anti-hypertensive agents” (Bioorg Med Chem, 2017):

What was measured:
Type in all cases: functional
[1] = tested on: Rattus norvegicus; experiment: Anti-hypertensive activity in Wistar rat assessed as systolic blood pressure at 10 mg/kg, iv after 5 mins (reference value: 110 to 124.6 mmHg)
[2] = tested on: Rattus norvegicus; experiment: Anti-hypertensive activity in Wistar rat assessed as diastolic blood pressure at 10 mg/kg, iv after 5 mins (reference value: 77.15 to 94.4 mmHg)
[3] = tested on: Rattus norvegicus; experiment: Anti-hypertensive activity in Wistar rat assessed as systolic blood pressure at 10 mg/kg, iv after 15 mins (reference value: 110 to 124.6 mmHg)
[4] = tested on: Rattus norvegicus; experiment: Anti-hypertensive activity in Wistar rat assessed as diastolic blood pressure at 10 mg/kg, iv after 15 mins (reference value: 77.15 to 94.4 mmHg)
[5] = tested on: Rattus norvegicus; experiment: Anti-hypertensive activity in Wistar rat assessed as systolic blood pressure at 10 mg/kg, iv after 30 mins (reference value: 110 to 124.6 mmHg)
[6] = tested on: Rattus norvegicus; experiment: Anti-hypertensive activity in Wistar rat assessed as diastolic blood pressure at 10 mg/kg, iv after 30 mins (reference value: 77.15 to 94.4 mmHg)
[7] = tested on: Rattus norvegicus; experiment: Anti-hypertensive activity in Wistar rat assessed as systolic blood pressure at 10 mg/kg, iv after 60 mins (reference value: 110 to 124.6 mmHg)
[8] = tested on: Rattus norvegicus; experiment: Anti-hypertensive activity in Wistar rat assessed as diastolic blood pressure at 10 mg/kg, iv after 60 mins (reference value: 77.15 to 94.4 mmHg)
[9] = tested on: Rattus norvegicus; experiment: Anti-hypertensive activity in Wistar rat assessed as systolic blood pressure at 10 mg/kg, iv after 120 mins (reference value: 110 to 124.6 mmHg)
[10] = tested on: Rattus norvegicus; experiment: Anti-hypertensive activity in Wistar rat assessed as diastolic blood pressure at 10 mg/kg, iv after 120 mins (reference value: 77.15 to 94.4 mmHg)
[11] = tested on: Rattus norvegicus; experiment: Anti-hypertensive activity in Wistar rat assessed as systolic blood pressure at 10 mg/kg, iv after 150 mins (reference value: 110 to 124.6 mmHg)
[12] = tested on: Rattus norvegicus; experiment: Anti-hypertensive activity in Wistar rat assessed as diastolic blood pressure at 10 mg/kg, iv after 150 mins (reference value: 77.15 to 94.4 mmHg)
[13] = tested on: Rattus norvegicus; experiment: Anti-hypertensive activity in Wistar rat assessed as systolic blood pressure at 10 mg/kg, iv after 180 mins (reference value: 110 to 124.6 mmHg)
[14] = tested on: Rattus norvegicus; experiment: Anti-hypertensive activity in Wistar rat assessed as diastolic blood pressure at 10 mg/kg, iv after 180 mins (reference value: 77.15 to 94.4 mmHg)

| Compound | Activity [1] [mmHg] | Activity [2] [mmHg] | Activity [3] [mmHg] | Activity [4] [mmHg] | Activity [5] [mmHg] | Activity [6] [mmHg] | Activity [7] [mmHg] | Activity [8] [mmHg] | Activity [9] [mmHg] | Activity [10] [mmHg] | Activity [11] [mmHg] | Activity [12] [mmHg] | Activity [13] [mmHg] | Activity [14] [mmHg] |
| --- | --- | --- | --- | --- | --- | --- | --- | --- | --- | --- | --- | --- | --- | --- |
| O=C(c1ccccc1Nc1ccncc1)N1CC[C@@H](n2cc(C3CC3)nn2)C1 | 116.4 | 77.08 | 115.1 | 79.63 | 112.2 | 76.29 | 108.2 | 73.85 | 111.6 | 86.96 | 110.4 | 85.74 | 117.2 | 86.32 |
| CCCCCCc1ccc(-c2cn([C@@H]3CCN(C(=O)c4ccccc4Nc4ccncc4)C3)nn2)cc1 | 94.4 | 74.8 | 104.9 | 81.7 | 111.6 | 83.6 | 111.9 | 83.25 | 118.9 | 91.75 | 118.7 | 92.8 | 119.9 | 91 |
| O[C@@H]1CCN(Cc2ccccc2)C1 | 107.9 | 52.65 | 116.4 | 57.86 | 119.3 | 70.89 | 121.4 | 77.25 | 112.3 | 74.19 | 114.6 | 78.62 | 118.9 | 83.15 |
| O[C@H]1CCN(Cc2ccccc2Nc2ccncc2)C1 | 120.4 | 77.06 | 119.9 | 73.74 | 120.6 | 75.5 | 115.7 | 81.18 | 118.2 | 75.97 | 122.9 | 76.6 | 124.4 | 83.32 |
| O=C(c1ccccc1-n1cc(-c2ccc(F)cc2)nn1)N1CC[C@@H](O)C1 | 103.3 | 76.5 | 120.1 | 74.8 | 118.9 | 77.9 | 122.4 | 95 | 121.6 | 88 | 121.8 | 88.8 | 121.5 | 90.8 |
| O=C(c1ccccc1Nc1ccncc1)N1CC[C@@H](n2cc(-c3ccc(F)cc3)nn2)C1 | 46.6 | 42.9 | 106.2 | 73.8 | 108.6 | 84.63 | 117.6 | 84.8 | 122.6 | 86.3 | 124.6 | 90.3 | 128.9 | 90.58 |
| CCCCCc1cn([C@@H]2CCN(C(=O)c3ccccc3Nc3ccncc3)C2)nn1 | 96.7 | 73.2 | 101.7 | 80.5 | 103.8 | 77.6 | 105.4 | 80.2 | 109.8 | 80.5 | 114.9 | 81.9 | 117.6 | 85.4 |
| C[Si](C)(C)O[C@@H]1CCNC1 | 119.9 | 84.74 | 119.7 | 85.42 | 119.9 | 87.98 | 117.6 | 83.9 | 118.5 | 89.49 | 122.4 | 88.4 | 121.6 | 84.75 |
| Nc1ccccc1C(=O)N1CCC(O)C1 (single isomer, unassigned) | 107.8 | 80.42 | 123.4 | 86.88 | 124.3 | 82.62 | 119.5 | 82.62 | 118.8 | 79.57 | 121.4 | 79.95 | 123.1 | 86.45 |
